These results are taken from US10961215B2, “N-aryl and N-heteroaryl piperidine derivatives as liver X receptor beta agonists, compositions, and their use” (Merck Sharp & Dohme Corp., priority 2016, dated 2021).

Test [1] addresses T1, GST tagged LXRbeta LBD (ligand binding domain) (Homo sapiens, UniProt P55055).
T1 construct: purchased Invitrogen pv4658.pps
T1 sequence (P55055 222-460 limits assumed): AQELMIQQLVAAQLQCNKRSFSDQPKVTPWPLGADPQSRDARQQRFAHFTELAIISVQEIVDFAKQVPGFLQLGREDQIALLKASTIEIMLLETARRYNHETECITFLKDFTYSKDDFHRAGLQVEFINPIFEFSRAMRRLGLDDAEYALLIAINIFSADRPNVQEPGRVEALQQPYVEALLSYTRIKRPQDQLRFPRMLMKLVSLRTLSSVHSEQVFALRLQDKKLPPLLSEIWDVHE
The experiment in a line: LanthaScreen TR-FRET Liver X Receptor Coactivator Assay, LXR beta-LBD (co-activator recruitment; IP and % Emax relative to T0901317). The test is classed as biochemical. Particulars: for EC50: Inflection Point of co-activator recruitment, LXR beta-LBD, TR-FRET; for Emax: read-out: LXR beta actiivty at max dose (%). The method, then:
(§1) Potency (Inflection Point, IP) and efficacy (Emax) are evaluated via compound-induced co-activator recruitment to glutathione-S-transferase (GST) tagged LXRbeta and LXRalpha LBD (ligand binding domain) proteins in relation to reference dual agonist compound T0901317 (N-(2,2,2-Trifluoroethyl)-N-[4-[2,2,2-trifluoro-1-hydroxy-1-(trifluoromethyl)ethyl]phenyl]benzenesulfonamide) using the LanthaScreen™ TR-FRET Liver X Receptor Coactivator Assays according to manufacturer's instructions (Invitrogen catalog number pv4658.pps and pv4655). While running the LanthaScreen™ TR-FRET Liver X Receptor Coactivator Assay, LXR alpha-LBD or LXR beta-LBD was added to ligand test compounds followed by addition of a mixture of a fluorescein-labelled coactivator peptide and terbium-conjugated anti-GST antibody. After an incubation period at room temperature, TR-FRET (time-resolved fluorescence resonance energy transfer) was measured using a filter-based instrument capable of TR-FRET, e.g. PerkinElmer Envision.
(In general: TR-FRET usually uses a lanthanide donor and a delayed reading to cut background.)

For test [2], the target named is T2, GST tagged LXRalpha LBD (ligand binding domain) (Homo sapiens, UniProt Q13133).
T2 construct: purchased Invitrogen pv4655
T2 sequence (Q13133 209-447 limits assumed): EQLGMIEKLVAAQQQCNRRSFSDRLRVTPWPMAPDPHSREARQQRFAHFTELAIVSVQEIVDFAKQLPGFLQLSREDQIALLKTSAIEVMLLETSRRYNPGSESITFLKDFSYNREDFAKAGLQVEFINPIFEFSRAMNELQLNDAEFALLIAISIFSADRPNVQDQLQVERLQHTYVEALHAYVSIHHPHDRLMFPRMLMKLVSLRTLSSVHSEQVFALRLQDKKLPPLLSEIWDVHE
The test can be described thus: LanthaScreen TR-FRET Liver X Receptor Coactivator Assay, LXR alpha-LBD (co-activator recruitment; IP and % Emax relative to T0901317). The test is classed as biochemical. Conditions: for LXR alpha IP (nM) / EC50: Inflection Point of co-activator recruitment, LXR alpha-LBD, TR-FRET; for Emax: read-out: LXR alpha actiivty at max dose (%). The method, then:
as §1

Where [3] appears, read: efficacy at max dose in relation to reference T0901317, LXR beta-LBD.
[4] abbreviates: efficacy at max dose in relation to reference T0901317, LXR alpha-LBD.

SMILES strings stand for the structures.

The term EC50 denotes the concentration needed to bring the measured effect to its halfway point. A higher EC50 goes with weaker potency. In test [1], `CN(C)C(=O)c1ccc(N2CCC([C@H]3C[C@@H](N(C)C(=O)[C@](O)(c4cccc(OC5CC5)c4)C(F)(F)F)C3)CC2)nc1Cl` [Example 17-5, Cis-2-chloro-6-(4-(-3-((R)-2-(3-cyclopropoxyphenyl)-3,3,3-trifluoro-2-hydroxy-N-methylpropanamido)cyclobutyl)piperidin-1-yl)-N,N-dimethylnicotinamide] yielded an EC50 of 148 nM. Also, the values for the Emax in test [1] (setting [3]) and in test [2] (setting [4]) were 20% and 0%, respectively. Besides, the “LXR alpha IP (nM)” value in test [2] is recorded as “No IP”.

As to `COc1cccc([C@@](O)(C(=O)N(C)CC[C@H]2CC23CCN(c2ccc(C(=O)N(C)C)c(Cl)c2)CC3)C(F)(F)F)c1` [Example 7-6, 2-chloro-N,N-dimethyl-4-((R)-1-(2-((R)-3,3,3-trifluoro-2-hydroxy-2-(3-methoxyphenyl)-N-methylpropanamido)ethyl)-6-azaspiro[2.5]octan-6-yl)benzamide], the EC50 came out at 21 nM in test [1] and 439 nM in test [2]. The Emax in test [1] (setting [3]) was 76%; in test [2] (setting [4]) it was 33%.

The molecule `COc1cccc([C@@](O)(C(=O)N(C)CCCC2(C)CCN(c3ccc(C(=O)N(C)C)c(Cl)c3)CC2)C(F)(F)F)c1` [Example 9-6, (R)-2-chloro-N,N-dimethyl-4-(4-methyl-4-(3-(3,3,3-trifluoro-2-hydroxy-2-(3-methoxyphenyl)-N-methylpropanamido)propyl)piper-idin-1-yl)benzamide] showed an EC50 in test [1] of 136 nM. Also, the Emax in test [1] (setting [3]) amounted to 20%; in test [2] (setting [4]), 0%. Also, the “LXR alpha IP (nM)” value in test [2] is “No IP”.

In the case of `CN(C)C(=O)c1ccc(N2CCC([C@H]3C[C@H]3CN(C)C(=O)[C@](O)(c3ccccc3)C(F)(F)F)CC2)nc1Cl` [Example 15-2, 2-chloro-N,N-dimethyl-6-(4-((1R,2R)-2-(((R)-3,3,3-trifluroo-2-hydroxy-N-methyl-2-phenylpropanamido)methyl)cyclopropyl)piperidin-1-yl)nicotinamide], the concentration giving a half-maximal response (EC50) was determined as 10 nM in test [1] and 289 nM in test [2]. Moreover, the Emax is 64% in test [1] (setting [3]) and 25% in test [2] (setting [4]).

Turning to `CNC(=O)c1ccc(N2CCC3(CC2)CC(CCN(C)C(=O)[C@](O)(c2cccc(OC)c2)C(F)(F)F)C3)nc1Cl` [Example 13-2, 2-chloro-N-methyl-6-(2-(2-((R)-3,3,3-trifluoro-2-hydroxy-2-(3-methoxyphenyl)-N-methylpropanamido)ethyl)-7-azaspiro[3.5]nonan-7-yl)nicotinamide], the response in test [1] was half-maximal at 142 nM (EC50). Further, the Emax in test [1] (setting [3]) was 49%; in test [2] (setting [4]), 1%. In test [2], the “LXR alpha IP (nM)” value is “No IP”.

Regarding `CN(C)C(=O)c1ccc(N2CCC3(CC2)C[C@@H]3CCN(C)C(=O)[C@](O)(c2cccc(OC3CC3)c2)C(F)(F)F)cc1Cl` [Example 7-3, 2-chloro-4-((R)-1-(2-((R)-2-(3-cyclopropoxyphenyl)-3,3,3-trifluoro-2-hydroxy-N-methylpropanamido)ethyl)-6-azaspiro[2.5]octan-6-yl)-N,N-dimethylbenzamide], the EC50 amounted to 32 nM in test [1] and 601 nM in test [2]. In addition, the Emax in test [1] (setting [3]) came to 61%; in test [2] (setting [4]), 24%.

Molecule `CN(C)C(=O)c1ccc(N2CCC(CC3CC(NC(=O)[C@](O)(c4ccccc4)C(F)(F)F)C3)CC2)cc1Cl` (stereo partly drawn) [Example 11-4, (R)-2-chloro-N,N-dimethyl-4-(4-((3-(3,3,3-trifluoro-2-hydroxy-2-phenylpropanamido)cyclobutyl)methyl)piperidin-1-yl)benzamide] displayed a concentration giving a half-maximal response (EC50) in test [1] of 270 nM. Moreover, the Emax in test [1] (setting [3]) came to 85%; in test [2] (setting [4]) it was 14%. The “LXR alpha IP (nM)” value in test [2] is “No IP”.

Take `CN(C)C(=O)c1ccc(N2CCC(C)(CCCN(C)C(=O)[C@](O)(c3ccccc3)C(F)(F)F)CC2)cc1Cl` [Example 9-7, (R)-2-chloro-N,N-dimethyl-4-(4-methyl-4-(3-(3,3,3-trifluoro-2-hydroxy-N-methyl-2-phenylpropanamido)propyl)piper-idin-1-yl)benzamide]: the values for the EC50 in test [1] and in test [2] were 78 nM and 921 nM, respectively. In addition, the values for the Emax in test [1] (setting [3]) and in test [2] (setting [4]) were 42% and 19%, respectively.

Consider `CN(C)C(=O)c1ccc(N2CCC3(CC2)CC3CCN(C)C(=O)[C@](O)(c2cccc(OC(F)(F)F)c2)C(F)(F)F)cc1Cl` (stereo in doubt) [Example 7-4, 2-chloro-N,N-dimethyl-4-((R)-1-(2-((R)-3,3,3-trifluoro-2-hydroxy-N-methyl-2-(3-(trifluoromethoxy)phenyl)propanamido)ethyl)-6-azaspiro[2.5]octan-6-yl) benzamide], for which the EC50 in test [1] turned out to be 20 nM; in test [2] it was 826 nM. Moreover, the Emax in test [1] (setting [3]) is 64%; in test [2] (setting [4]) it was 26%.

In turn, `COc1cccc([C@@](O)(C(=O)NC[C@@H](C)CC2CCN(c3ccc(C(=O)N(C)C)c(Cl)n3)CC2)C(F)(F)F)c1` [Example 3-4, 2-chloro-N,N-dimethyl-6-(4-((S)-2-methyl-3-((R)-3,3,3-trifluoro-2-hydroxy-2-(3-methoxyphenyl)propanamido)propyl)piperidin 1-yl)nicotinamide] had an EC50 in test [1] of 134 nM. Besides, the Emax in test [1] (setting [3]) amounted to 87%; in test [2] (setting [4]) it was 19%. Moreover, in test [2], the “LXR alpha IP (nM)” value was “No IP”.

With `COc1cccc([C@@](O)(C(=O)NCCCC2CCN(c3ccc(C(=O)N(C)C)c(Cl)n3)CC2)C(F)(F)F)c1` [Example 5-23, (R)-2-chloro-N,N-dimethyl-6-(4-(3-(3,3,3-trifluoro-2-hydroxy-2-(3-methoxyphenyl)propanamido)propyl)piperidin-1-yl) nicotinamide], the EC50 in test [1] worked out at 275 nM. For the same molecule, in test [1] (setting [3]), the “LXR beta actiivty at max dose (%)” value is reported as 73%. Further, the “LXR alpha IP (nM)” value in test [2] is listed as “No IP”. The “LXR alpha actiivty at max dose (%)” value in test [2] (setting [4]) worked out at 16%.

Molecule `COc1cccc([C@@](O)(C(=O)N(C)[C@H]2C[C@@H](C3CCN(c4ccc(C(=O)N(C)C)c(Cl)n4)CC3)C2)C(F)(F)F)c1` [Example 17-4, cis-2-chloro-N,N-dimethyl-6-(4-(-3-((R)-3,3,3-trifluoro-2-hydroxy-2-(3-methoxyphenyl)-N-methylpropanamido)cyclobutyl)piperidin-1-yl)nicotinamide] showed a half-maximal effective concentration (EC50) in test [1] of 53 nM. Further, the Emax in test [1] (setting [3]) was found to be 39%; in test [2] (setting [4]), 13%. In test [2], the “LXR alpha IP (nM)” value is given as “No IP”.

For `COc1cccc([C@@](O)(C(=O)NC[C@H](C)CC2CCN(c3ccc(C(=O)N(C)C)c(Cl)n3)CC2)C(F)(F)F)c1` [Example 3-5], the concentration giving a half-maximal response (EC50) in test [1] was 156 nM; in test [2], 2890 nM. The Emax in test [1] (setting [3]) is 57%; in test [2] (setting [4]), 22%.

On to `CN(C)C(=O)c1ccc(N2CCC3(CC2)CC3CCCN(C)C(=O)C(C)(C)c2ccccc2)cc1Cl` (stereo not drawn) [Example 7-34, 2-chloro-4-(1-(3-(N,2-dimethyl-2-phenylpropanamido)propyl)-6-azaspiro[2.5]octan-6-yl)-N,N-dimethylbenzamide], for which the concentration giving a half-maximal response (EC50) in test [1] stood at 264 nM. Besides, the Emax in test [1] (setting [3]) amounted to 23%; in test [2] (setting [4]) it was 0%. Besides, in test [2], the “LXR alpha IP (nM)” value is listed as “No IP”.

`COc1cccc([C@@](O)(C(=O)N(C)C2CC(CC3CCN(c4ccc(C(=O)N(C)C)c(C)n4)CC3)C2)C(F)(F)F)c1` (single isomer, unassigned) [first eluting peak]: the “activity (stated in words in the synthesis text)” value in test [1] (cis/trans isomers of Example 11-1 separated by Prep-HPLC (RT=1.95 min, 1.98 min), assay not given) was “not active”.
